Data published in patent US20230115945A1, “AMINOPYRIMIDINE COMPOUNDS” (TYRA BIOSCIENCES, INC., priority 2019, published 2023).

Assays:
Details in all cases: 11-point 3-fold dilution, qPCR readout
FGFR3 (V555M) = biological target: T1, FGFR3 (V555M) (Homo sapiens, UniProt P22607, V555M); test: Kinase binding assay (Kd), FGFR3 (V555M)
T1 construct: made in house; host or cells: E. coli host derived from BL21, infected with T7 phage
Description: (§1) Kinase-tagged T7 phage strains were prepared in an E. coli host derived from the BL21 strain. E. coli were grown to log-phase and infected with T7 phage and incubated with shaking at 32° C. until lysis. The lysates were centrifuged and filtered to remove cell debris. Streptavidin-coated magnetic beads were treated with biotinylated small molecule ligands for 30 minutes at room temperature to generate affinity resins for kinase assays. The liganded beads were blocked with excess biotin and washed with blocking buffer SeaBlock (Pierce), 1% BSA, 0.05% Tween 20, 1 mM DTT to remove unbound ligand and to reduce non-specific binding. Binding reactions were assembled by combining kinases, liganded affinity beads, and test compounds in 1× binding buffer (20% SeaBlock, 0.17×PBS, 0.05% Tween 20, 6 mM DTT).
(§2) Test compounds were prepared as 111X stocks in 100% DMSO. Kds were determined using an 11-point 3-fold compound dilution series with three DMSO control points. All compounds for Kd measurements are distributed by acoustic transfer (non-contact dispensing) in 100% DMSO. The compounds were then diluted directly into the assays such that the final concentration of DMSO was 0.9%. All reactions performed in polypropylene 384-well plate. Each was a final volume of 0.02 ml. The assay plates were incubated at room temperature with shaking for 1 hour and the affinity beads were washed with wash buffer (lx PBS, 0.05% Tween 20). The beads were then re-suspended in elution buffer (lx PBS, 0.05% Tween 20, 0.5 μM non-biotinylated affinity ligand) and incubated at room temperature with shaking for 30 minutes. The kinase concentration in the eluates was measured by qPCR.
(§3) Binding constants were calculated with a standard dose-response curve using the Hill equation: […]
(§4) The Hill Slope was set to −1. Curves were fitted using a non-linear least square fit with the Levenberg-Marquardt algorithm.

FGFR3 = biological target: T2, FGFR3 (Homo sapiens, UniProt P22607); test: Kinase binding assay (Kd), FGFR3
T2 construct: made in house; host or cells: E. coli host derived from BL21, infected with T7 phage
Description: as §1, §2, §3, §4

FGFR1 = biological target: T3, FGFR1 (Homo sapiens, UniProt P11362); test: Kinase binding assay (Kd), FGFR1
T3 construct: made in house; host or cells: E. coli host derived from BL21, infected with T7 phage
Description: as §1, §2, §3, §4

FGFR2 = biological target: T4, FGFR2 (Homo sapiens, UniProt P21802); test: Kinase binding assay (Kd), FGFR2
T4 construct: made in house; host or cells: E. coli host derived from BL21, infected with T7 phage
Description: as §1, §2, §3, §4

FGFR4 = biological target: T5, FGFR4 (Homo sapiens, UniProt P22455); test: Kinase binding assay (Kd), FGFR4
T5 construct: made in house; host or cells: E. coli host derived from BL21, infected with T7 phage
Description: as §1, §2, §3, §4

T5 sequence (P22455 22-802): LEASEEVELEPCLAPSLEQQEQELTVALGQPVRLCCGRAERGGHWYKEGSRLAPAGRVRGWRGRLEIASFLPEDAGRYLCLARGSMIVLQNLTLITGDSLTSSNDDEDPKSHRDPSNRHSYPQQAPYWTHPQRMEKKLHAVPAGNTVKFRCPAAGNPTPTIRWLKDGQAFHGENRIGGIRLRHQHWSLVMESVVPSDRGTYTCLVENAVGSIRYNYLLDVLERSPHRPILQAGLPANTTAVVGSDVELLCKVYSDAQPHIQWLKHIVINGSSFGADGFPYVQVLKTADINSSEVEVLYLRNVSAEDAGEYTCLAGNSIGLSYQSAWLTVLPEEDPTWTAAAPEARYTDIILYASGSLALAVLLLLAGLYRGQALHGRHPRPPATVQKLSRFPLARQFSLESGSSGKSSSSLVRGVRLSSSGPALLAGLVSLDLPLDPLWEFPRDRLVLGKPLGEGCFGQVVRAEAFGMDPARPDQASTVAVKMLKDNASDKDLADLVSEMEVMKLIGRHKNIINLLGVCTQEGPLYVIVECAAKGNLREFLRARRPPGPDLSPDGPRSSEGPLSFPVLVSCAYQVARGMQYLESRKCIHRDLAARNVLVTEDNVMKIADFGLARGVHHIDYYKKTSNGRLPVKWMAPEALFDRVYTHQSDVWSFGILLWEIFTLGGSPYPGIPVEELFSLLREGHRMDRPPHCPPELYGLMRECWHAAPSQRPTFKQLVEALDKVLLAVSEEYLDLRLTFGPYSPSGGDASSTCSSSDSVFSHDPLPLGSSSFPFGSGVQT
T2 sequence (P22607 23-806): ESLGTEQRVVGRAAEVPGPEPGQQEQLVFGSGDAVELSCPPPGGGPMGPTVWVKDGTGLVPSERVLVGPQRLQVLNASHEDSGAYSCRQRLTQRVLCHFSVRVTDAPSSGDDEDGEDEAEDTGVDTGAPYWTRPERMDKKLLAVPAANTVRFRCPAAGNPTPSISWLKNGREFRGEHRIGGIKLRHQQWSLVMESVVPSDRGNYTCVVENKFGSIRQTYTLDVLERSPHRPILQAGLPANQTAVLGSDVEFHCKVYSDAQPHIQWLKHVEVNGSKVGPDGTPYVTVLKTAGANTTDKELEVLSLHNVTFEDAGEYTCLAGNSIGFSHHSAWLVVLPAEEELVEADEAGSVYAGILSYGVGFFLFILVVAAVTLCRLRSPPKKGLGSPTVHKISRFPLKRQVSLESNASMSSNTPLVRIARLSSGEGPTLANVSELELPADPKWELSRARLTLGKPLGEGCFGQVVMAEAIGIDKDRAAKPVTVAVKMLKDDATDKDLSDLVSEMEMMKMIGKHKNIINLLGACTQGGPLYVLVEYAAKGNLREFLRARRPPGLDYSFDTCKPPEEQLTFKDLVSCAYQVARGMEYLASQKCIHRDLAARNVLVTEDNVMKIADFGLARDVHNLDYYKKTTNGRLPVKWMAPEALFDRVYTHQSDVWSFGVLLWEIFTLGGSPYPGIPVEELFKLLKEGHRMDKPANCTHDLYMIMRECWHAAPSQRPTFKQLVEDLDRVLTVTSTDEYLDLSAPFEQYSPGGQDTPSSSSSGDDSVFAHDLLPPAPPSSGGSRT
T3 sequence (P11362 22-822): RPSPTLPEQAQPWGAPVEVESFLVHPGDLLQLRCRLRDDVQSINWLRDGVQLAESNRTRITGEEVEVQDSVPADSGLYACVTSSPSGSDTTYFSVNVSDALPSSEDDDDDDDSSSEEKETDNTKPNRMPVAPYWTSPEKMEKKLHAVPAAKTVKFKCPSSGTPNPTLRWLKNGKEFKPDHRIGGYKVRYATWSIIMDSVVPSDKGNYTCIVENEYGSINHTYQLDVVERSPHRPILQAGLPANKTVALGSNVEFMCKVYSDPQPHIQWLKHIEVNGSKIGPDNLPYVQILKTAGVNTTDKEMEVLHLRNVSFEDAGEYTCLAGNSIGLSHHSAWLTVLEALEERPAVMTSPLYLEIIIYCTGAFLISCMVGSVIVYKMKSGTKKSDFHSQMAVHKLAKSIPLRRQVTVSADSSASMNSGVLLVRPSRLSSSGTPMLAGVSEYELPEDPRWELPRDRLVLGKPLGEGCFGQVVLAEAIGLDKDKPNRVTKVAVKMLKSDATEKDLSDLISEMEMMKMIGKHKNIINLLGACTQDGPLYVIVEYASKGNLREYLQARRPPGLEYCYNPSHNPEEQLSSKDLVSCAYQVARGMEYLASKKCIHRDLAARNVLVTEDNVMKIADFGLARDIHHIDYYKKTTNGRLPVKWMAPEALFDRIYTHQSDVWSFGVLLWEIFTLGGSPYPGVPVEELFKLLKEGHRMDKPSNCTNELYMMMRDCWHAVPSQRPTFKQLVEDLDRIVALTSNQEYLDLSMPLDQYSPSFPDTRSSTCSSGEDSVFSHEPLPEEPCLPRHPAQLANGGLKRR
T4 sequence (P21802 22-821): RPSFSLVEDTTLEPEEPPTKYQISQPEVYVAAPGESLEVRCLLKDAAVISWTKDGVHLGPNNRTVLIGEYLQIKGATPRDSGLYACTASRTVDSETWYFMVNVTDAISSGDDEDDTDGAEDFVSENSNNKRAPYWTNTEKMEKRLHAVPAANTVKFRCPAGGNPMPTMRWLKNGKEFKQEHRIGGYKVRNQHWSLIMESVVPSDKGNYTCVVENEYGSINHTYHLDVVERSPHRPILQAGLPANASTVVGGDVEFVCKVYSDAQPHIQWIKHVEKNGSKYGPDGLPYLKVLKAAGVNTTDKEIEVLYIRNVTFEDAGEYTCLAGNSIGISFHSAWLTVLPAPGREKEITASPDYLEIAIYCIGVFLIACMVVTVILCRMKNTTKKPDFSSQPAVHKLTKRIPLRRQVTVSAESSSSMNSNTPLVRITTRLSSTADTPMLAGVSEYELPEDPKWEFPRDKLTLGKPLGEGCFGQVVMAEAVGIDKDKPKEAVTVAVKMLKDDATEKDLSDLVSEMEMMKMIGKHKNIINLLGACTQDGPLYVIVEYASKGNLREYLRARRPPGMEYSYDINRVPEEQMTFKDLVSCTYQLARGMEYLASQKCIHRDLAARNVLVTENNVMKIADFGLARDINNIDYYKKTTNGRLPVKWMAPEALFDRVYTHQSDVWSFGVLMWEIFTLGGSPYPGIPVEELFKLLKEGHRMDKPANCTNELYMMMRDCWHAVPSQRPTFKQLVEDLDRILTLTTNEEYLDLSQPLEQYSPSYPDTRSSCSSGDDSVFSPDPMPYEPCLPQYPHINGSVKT
T1 sequence (P22607 23-806 V555M): as the sequence (P22607 23-806) above, with V533M counted along it

SMILES | Kd (FGFR3 (V555M)) | Kd (FGFR3) | Kd (FGFR1) | Kd (FGFR2) | Kd (FGFR4)
COc1cc(Nc2ncc(C)c(-c3c[nH]c4c(OC)cccc34)n2)ccc1N=S(C)(C)=O [Example 33, N-[4-[[dimethyl(oxo)-λ^6-sulfanylidene]amino]-3-methoxy-phenyl]-4-(7-methoxy-1H-indol-3-yl)-5-methyl-pyrimidin-2-amine] | 2 nM | 19 nM | 4 nM | 6 nM | 0.12 µM
Cc1ccc2c(-c3nc(Nc4ccc(N5CCS(=N)(=O)CC5)cc4)ncc3C)c[nH]c2c1 [Example 34, N-[4-(1-imino-1-oxo-1,4-thiazinan-4-yl)phenyl]-5-methyl-4-(6-methyl-1H-indol-3-yl)pyrimidin-2-amine] | 2 nM | 30 nM | 14 nM | 39 nM | 0.23 µM
COc1cc(S(C)(=N)=O)ccc1Nc1ncc(Cl)c(-c2c[nH]c3ccccc23)n1 (stereo not shown) [Example 36, 5-Chloro-4-(1H-indol-3-yl)-N-[2-methoxy-4-(methylsulfonimidoyl)-phenyl]pyrimidin-2-amine] | 4 nM | 89 nM | 72 nM | 67 nM | 0.057 µM
CN=S(C)(=O)c1ccc(Nc2ncc(Cl)c(-c3c[nH]c4ccccc34)n2)c(OC)c1 (stereo not shown) [Example 37, 5-Chloro-N-[4-(N,S-dimethylsulfonimidoyl)-2-methoxy-phenyl]-4-(1H-indol-3-yl)pyrimidin-2-amine] | 28 nM | 290 nM | 500 nM | 1200 nM | 0.12 µM
CCN1CCS(=O)(=Nc2ccc(Nc3ncc(Cl)c(-c4c[nH]c5ccccc45)n3)c(OC)c2)CC1 [Example 39, 5-Chloro-4-(1H-indol-3-yl)-N-[2-methoxy-4-[(4-ethyl-1-oxo-1,4-thiazinan-1-ylidene)-amino]phenyl]pyrimidin-2-amine] | 6 nM | 57 nM | 58 nM | 170 nM | 0.066 µM
COc1cc(N=S2(=O)CCN(C(C)C)CC2)ccc1Nc1ncc(Cl)c(-c2c[nH]c3ccccc23)n1 [Example 40, 5-Chloro-4-(1H-indol-3-yl)-N-[4-[(4-isopropyl-1-oxo-1,4-thiazinan-1-ylidene)amino]-2-methoxy-phenyl]pyrimidin-2-amine] | 10 nM | 110 nM | 80 nM | 860 nM | 0.1 µM
N=S(=O)(c1ccc(Nc2ncc(Cl)c(-c3c[nH]c4ccccc34)n2)cc1)C1CC1 (stereo not shown) [Example 47, 5-Chloro-N-[4-(cyclopropyl-sulfonimidoyl)phenyl]-4-(1H-indol-3-yl)pyrimidin-2-amine] | 4 nM | 37 nM | 18 nM | 16 nM | 0.19 µM
Cc1cnc(Nc2ccc(S(C)(=N)=O)cc2)nc1-c1c[nH]c2ccccc12 (stereo not shown) [Example 48, 4-(1H-Indol-3-yl)-5-methyl-N-[4-(methylsulfonimidoyl)-phenyl]pyrimidin-2-amine] | 2 nM | 16 nM | 7 nM | 6 nM | 0.16 µM
Cn1cc(-c2nc(Nc3ccc(S(=N)(=O)C4CC4)cc3)ncc2Cl)c2ccccc21 (stereo not shown) [Example 50, 5-Chloro-N-[4-(cyclopropyl-sulfonimidoyl)phenyl]-4-(1-methylindol-3-yl)pyrimidin-2-amine] | 26 nM | 190 nM | 330 nM | 170 nM | 3 µM
N=S1(=O)CCN(c2ccc(Nc3ncc(F)c(-c4c[nH]c5ccccc45)n3)cc2)CC1 [Example 58, 5-Fluoro-N-[4-(1-imino-1-oxo-1,4-thiazinan-4-yl)phenyl]-4-(1H-indol-3-yl)pyrimidin-2-amine] | 7 nM | 15 nM | 11 nM | 19 nM | 0.12 µM
CS(C)(=O)=Nc1ccc(Nc2ncc(F)c(-c3c[nH]c4ccccc34)n2)cc1 [Example 59, N-[4-[[Dimethyl(oxo)-λ^6-sulfanylidene]amino]phenyl]-5-fluoro-4-(1H-indol-3-yl)pyrimidin-2-amine] | 11 nM | 22 nM | 18 nM | 50 nM | 0.13 µM
C=CC(=O)Nc1ccc2c(c1)c(C)cn2-c1nc(Nc2ccc(N=S(C)(C)=O)cc2OCC)ncc1Cl [Example 65, N-[1-[5-Chloro-2-[4-[[dimethyl(oxo)-λ^6-sulfanylidene]amino]-2-ethoxy-anilino]pyrimidin-4-yl]-3-methyl-indol-5-yl]prop-2-enamide] | 970 nM | 1700 nM | 4000 nM | 7900 nM | 1.3 µM
CCC(=O)Nc1ccc2c(ccn2-c2nc(Nc3ccc(N=S(C)(C)=O)cc3)ncc2Cl)c1 [Example 68, N-[1-[5-Chloro-2-[4-[[dimethyl(oxo)-λ^6-sulfanylidene]amino]anilino]-pyrimidin-4-yl]indol-5-yl]propanamide] | 24 nM | 320 nM | 630 nM | 340 nM | 2.4 µM
C=CC(=O)Nc1ccc2c(ccn2-c2nc(Nc3ccc(S(C)(=N)=O)cc3OC)ncc2Cl)c1 (stereo not shown) [Example 71, N-[1-[5-chloro-2-[2-methoxy-4-(methylsulfonimidoyl)-anilino]pyrimidin-4-yl]indol-5-yl]prop-2-enamide] | 140 nM | 1500 nM | 6000 nM | 3000 nM | 3.4 µM
C=CC(=O)Nc1ccc2c(ccn2-c2nc(Nc3ccc(N4CCS(=N)(=O)CC4)cc3)ncc2Cl)c1 [Example 72] | 5.7 nM | 17 nM | 77 nM | 100 nM | 0.24 µM

More lines, now with the values ahead:

Kd (FGFR3 (V555M)) | Kd (FGFR3) | Kd (FGFR1) | Kd (FGFR2) | Kd (FGFR4) | SMILES
9 nM | 130 nM | 72 nM | 200 nM | 0.086 µM | COc1cc(N2CCS(=N)(=O)CC2)ccc1Nc1ncc(Cl)c(-c2c[nH]c3ccccc23)n1 [Example 35, 5-Chloro-N-[4-(1-imino-1-oxo-1,4-thiazinan-4-yl)-2-methoxy-phenyl]-4-(1H-indol-3-yl)pyrimidin-2-amine]
180 nM | 6000 nM | 9000 nM | 18000 nM | 6.3 µM | COc1cc(S(C)(=N)=O)ccc1Nc1ncc(Cl)c(-n2ccc3ccccc32)n1 (stereo not shown) [Example 41, 5-chloro-4-indol-1-yl-N-[2-methoxy-4-(methyl-sulfonimidoyl)phenyl]pyrimidin-2-amine]
110 nM | 1800 nM | 3000 nM | 3300 nM | 4.2 µM | COc1cc(S(C)(=N)=O)ccc1Nc1ncc(C)c(-n2ccc3ccccc32)n1 (stereo not shown) [Example 42, 4-Indol-1-yl-N-[2-methoxy-4-(methylsulfonimidoyl)phenyl]-5-methyl-pyrimidin-2-amine]
680 nM | 3400 nM | 5000 nM | 4000 nM | 7.5 µM | COc1cc(S(C)(=N)=O)ccc1Nc1nccc(-n2ccc3ccccc32)n1 (stereo not shown) [Example 43, 4-Indol-1-yl-N-[2-methoxy-4-(methylsulfonimidoyl)phenyl]-pyrimidin-2-amine]
42 nM | 2800 nM | 2200 nM | 15000 nM | 4.1 µM | COc1cc(N2CCS(=N)(=O)CC2)ccc1Nc1ncc(Cl)c(-n2ccc3ccccc32)n1 [Example 44, 5-Chloro-N-[4-(1-imino-1-oxo-1,4-thiazinan-4-yl)-2-methoxy-phenyl]-4-indol-1-yl-pyrimidin-2-amine]
1100 nM | 4900 nM | 7800 nM | 9000 nM | 5.1 µM | COc1cc(N2CCS(=N)(=O)CC2)ccc1Nc1nccc(-n2ccc3ccccc32)n1 [Example 45, N-[4-(1-Imino-1-oxo-1,4-thiazinan-4-yl)-2-methoxy-phenyl]-4-indol-1-yl-pyrimidin-2-amine]
160 nM | 2200 nM | 2700 nM | 4400 nM | 5.6 µM | COc1cc(N2CCS(=N)(=O)CC2)ccc1Nc1ncc(C)c(-n2ccc3ccccc32)n1 [Example 46, N-[4-(1-imino-1-oxo-1,4-thiazinan-4-yl)-2-methoxy-phenyl]-4-indol-1-yl-5-methyl-pyrimidin-2-amine]
18 nM | 180 nM | 290 nM | 380 nM | 1.3 µM | CCC(=O)Nc1ccc2c(ccn2-c2nc(Nc3ccc(N4CCS(=N)(=O)CC4)cc3)ncc2Cl)c1 [Example 73, N-[1-[5-chloro-2-[4-(1-imino-1-oxo-1,4-thiazinan-4-yl)anilino]pyrimidin-4-yl]indol-5-yl]propanamide]
